Results reported in patent publication US5128347A, “Glycosidase inhibiting 1,4-dideoxy-4-fluoronojirimycin” (Monsanto Company, priority 1990, dated 1992).

Columns and labels:
Assay type in all cases: biochemical
yeast α-glucosidase = molecular target: T1, yeast α-glucosidase (Saccharomyces cerevisiae, UniProt P53341); test: α-Glucosidase inhibition assay, pH 7.4; settings: 5 mM test compound, read-out: ALPHA GLUCOSIDASE pH 7.4 (enzyme inhibition)
T1 construct: purchased Sigma
Protocol: (§1) The glycosidase inhibition activity is determined by modifying an assay procedure described in Evans et al, Phytochemistry, 22, pp. 768-770 (1983). More particularly, yeast α-glucosidase and almond β-glucosidase activities were measured by the Evans et al method which was modified by assaying activities at pH 7.4 in N-2-hydroxyethylpiperazine-N-2-ethane sulfonic acid (HEPES) buffer, measuring in 96 well microtiter plates, and including 10% DMSO in control and test samples.
(§2) The release of p-nitrophenol from the substrate p-nitrophenylglycoside was measured spectrophotometrically in the presence and absence of test compound. Each assay included a known inhibitor of the enzyme as a standard. […]
To 100 ul 50 mM HEPES buffer, pH 7.4, in a microtiter plate, 20 ul test compound in DMSO (DMSO alone in control)and 40 ul (0.013 units) yeast α-glucosidase (Sigma) in HEPES buffer were added and pre-incubated at room temperature 15 minutes. 40 ul 1.25 mM p-nitrophenyl-α-D-glucopyranoside (Sigma) in HEPES buffer, as substrate was added and the absorbance change at 405 nm was monitored in a Biotek EIA Autoreader. Absorption change was measured at 15 to 25 minutes (reaction was linear for at least 30 minutes). […] IC50 values were determined from the linear portion of the log concentration vs percent inhibition curve obtained from a minimum of 3 points. […]

almond β-glucosidase [1] = test: β-Glucosidase inhibition assay, pH 4.8; settings: 5 mM test compound
Protocol: as §1
(§3) The release of p-nitrophenol from the substrate p-nitrophenylglycoside was measured spectrophotometrically in the presence and absence of test compound. Each assay included a known inhibitor of the enzyme as a standard. IC50 values were determined for compounds which inhibited the enzymes more than 50% at a 1 millimolar concentration.
β-Glucosidase Inhibition Assay
To 100 ul 50 mM sodium citrate buffer, pH 4.8, in a microtiter plate, 20 ul test compound in DMSO (DMSO alone in control) and 20 ul (0.017 units) β-glucosidase (Sigma) in citrate buffer were added and pre-incubated at room temperature 15 minutes. […] 50 ul 0.4 M NaOH was added and the absorption change at 405 nm was determined utilizing a Biotek EIA Autoreader. […] IC50 values were determined from the linear portion of the log concentration vs percent inhibition curve obtained from a minimum of 3 points. […]

almond β-glucosidase [2] = test: β-Glucosidase inhibition assay, pH 7.4; settings: 5 mM test compound
Protocol: as §1, §2
To 100 ul 50 mM HEPES buffer, pH 7.4, in a microtiter plate, 20 ul test compound in DMSO (DMSO alone in control) and 40 ul (0.136 units) β-glucosidase (Sigma) in HEPES buffer were added and preincubated at room temperature 15 minutes. 40 ul 1.25 mM p-nitrophenyl-β-D-glucopyranoside in HEPES buffer was added as substrate and the absorbance change at 405 nm was monitored utilizing a Biotek EIA Autoreader. Absorption change was measured at 15 to 25 minutes (reaction is linear for at least 30 minutes). […] IC50 values were determined from the linear portion of the log concentration vs percent inhibition curve obtained from a minimum of 3 points. […]

alpha mannosidase [3] = molecular target: T2, alpha mannosidase (Canavalia ensiformis, UniProt C0HJB3); test: α-Mannosidase inhibition, pH 4.5; settings: 5 mM test compound, read-out: ALPHA MANNOSIDASE pH 4.5 (enzyme inhibition)
T2 sequence (C0HJB3 1-981): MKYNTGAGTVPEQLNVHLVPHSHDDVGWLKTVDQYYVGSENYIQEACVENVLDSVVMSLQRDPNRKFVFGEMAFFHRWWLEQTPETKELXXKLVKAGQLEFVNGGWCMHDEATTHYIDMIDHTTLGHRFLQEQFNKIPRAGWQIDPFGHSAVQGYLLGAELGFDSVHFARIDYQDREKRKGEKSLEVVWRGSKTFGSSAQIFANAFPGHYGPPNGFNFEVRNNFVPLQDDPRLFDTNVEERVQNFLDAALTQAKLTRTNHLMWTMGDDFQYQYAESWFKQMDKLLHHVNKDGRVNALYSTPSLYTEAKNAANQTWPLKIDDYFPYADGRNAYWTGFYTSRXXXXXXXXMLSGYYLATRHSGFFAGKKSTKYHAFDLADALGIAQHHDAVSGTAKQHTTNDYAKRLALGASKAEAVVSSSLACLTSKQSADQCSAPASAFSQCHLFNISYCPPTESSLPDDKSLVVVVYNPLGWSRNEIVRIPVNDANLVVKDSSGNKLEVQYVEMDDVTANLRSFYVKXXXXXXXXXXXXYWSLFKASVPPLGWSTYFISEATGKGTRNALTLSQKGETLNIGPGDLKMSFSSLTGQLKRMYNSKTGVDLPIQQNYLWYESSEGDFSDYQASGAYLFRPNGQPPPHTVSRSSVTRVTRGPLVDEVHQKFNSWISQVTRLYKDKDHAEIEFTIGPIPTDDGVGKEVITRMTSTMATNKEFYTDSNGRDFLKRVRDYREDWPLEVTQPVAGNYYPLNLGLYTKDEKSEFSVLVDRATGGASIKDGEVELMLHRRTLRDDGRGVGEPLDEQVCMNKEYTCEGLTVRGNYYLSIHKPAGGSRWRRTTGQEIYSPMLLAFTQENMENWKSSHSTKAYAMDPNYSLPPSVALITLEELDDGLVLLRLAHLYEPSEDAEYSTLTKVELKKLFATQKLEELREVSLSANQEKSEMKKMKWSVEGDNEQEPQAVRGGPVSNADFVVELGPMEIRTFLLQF
Protocol: as §3

alpha mannosidase [4] = molecular target: T2, alpha mannosidase; test: α-Mannosidase inhibition, pH 7.4; settings: 5 mM test compound, read-out: ALPHA MANNOSIDASE pH 7.4 (enzyme inhibition)
Protocol: as §3

T1 sequence (P53341 whole entry): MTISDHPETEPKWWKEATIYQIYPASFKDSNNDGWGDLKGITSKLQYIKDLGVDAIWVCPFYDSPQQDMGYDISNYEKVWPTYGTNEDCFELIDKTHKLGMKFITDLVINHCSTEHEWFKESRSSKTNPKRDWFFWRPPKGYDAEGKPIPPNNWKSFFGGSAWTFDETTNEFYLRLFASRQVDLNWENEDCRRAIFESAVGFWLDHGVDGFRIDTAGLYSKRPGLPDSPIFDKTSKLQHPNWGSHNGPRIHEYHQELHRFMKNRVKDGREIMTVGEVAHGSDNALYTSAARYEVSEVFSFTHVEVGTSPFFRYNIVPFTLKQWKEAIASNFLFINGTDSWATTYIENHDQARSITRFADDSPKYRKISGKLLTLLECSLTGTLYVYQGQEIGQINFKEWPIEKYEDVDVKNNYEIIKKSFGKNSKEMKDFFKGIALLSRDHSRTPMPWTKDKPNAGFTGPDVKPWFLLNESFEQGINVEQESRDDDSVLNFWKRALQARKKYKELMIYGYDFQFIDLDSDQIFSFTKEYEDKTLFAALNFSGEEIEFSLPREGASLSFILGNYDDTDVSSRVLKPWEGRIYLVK

| Structure (SMILES) | inhibition at 5000 µM (yeast α-glucosidase) [%] | BETA GLUCOSIDASE pH 4.8 (enzyme inhibition) (almond β-glucosidase [1]) [%] | BETA GLUCOSIDASE pH 7.4 (enzyme inhibition) (almond β-glucosidase [2]) [%] | inhibition at 5000 µM (alpha mannosidase [3]) [%] | inhibition at 5000 µM (alpha mannosidase [4]) [%] |
| --- | --- | --- | --- | --- | --- |
| OC[C@H]1NC[C@H](O)[C@@H](O)[C@@H]1F [Compound 1, 1,4-dideoxy-4-fluoronojirimycin] | 18 | 17 | 13 | -2 | 12 |
| CCCCN1C[C@H](O)[C@@H](O)[C@H](F)[C@H]1CO [Compound 2, N-butyl-1,4-dideoxy-4-fluoronojirimycin] | 28 | 13 | 14 | -3 | 6 |
